From US20260048040A1, “MTA-COOPERATIVE PRMT5 INHIBITORS FOR USE IN THE TREATMENT OF CANCER” (ASTRAZENECA AB, priority 2022, published 2026)
Like-named read-outs stand apart in the source and are kept apart here.

How the values were obtained:
[1] = test system: wild type (wt) HCT116 cells; test: Proliferation assay, HCT116 wild type cells (Alamar Blue); format: cell-based; settings: Homo sapiens, HCT-116; HCT116, MTAP status wt, MTAP mRNA level high; average values from two or more experiments
Protocol: (§1) For the HCT116 isogenic cell line (the parental model purchased from ATCC, the MTAP KO clone generated in-house using CRISPR technology): Cells were harvested to a density of 400 cells per well (McCoys 5A+10% FCS+1% Glutamax), 40 μl/well seeded into 384-well plates (Greiner, Kremsmunster, Austria; 781090) using a Multidrop Combi. For Day 0 plates immediately add 4 μl Alamar Blue reagent (Thermo; DAL1100) using a multidrop combi and incubate for 3 h at 37° C., 5% CO2. Day 0 cell plates were measured using Envision plate reader with fluorescence excitation wavelength of 540-570 nm (peak excitation is 570 nm), fluorescence emission at 580-610 nm (peak emission is 585 nm). Test compounds were added using an Echo 555 and placed in incubator at 37° C., 5% CO2 and incubated for 4 more days. […], add 4 μl Alamar Blue reagent using a Multidrop Combi and incubate for 3 h at 37° C., 5% CO2. Day 4 cell plates were measured using EnVision plate reader with fluorescence excitation wavelength of 540-570 nm, fluorescence emission at 580-610 nm. The rate of proliferation (IC50 values) was determined using Genedata screener software by assessing the total cell number from the Envision plate reader for Day 0 and Day 4 plates.

L1236 cells = test: Proliferation assay, L1236 Hodgkin Lymphoma cells (CellTiter Glo); format: cell-based
Protocol: (§2) For the Hodgkin Lymphoma cell lines L428, L540, L1236, HDLM2 and KM-H2 (purchased from DSMZ, http://www.dsmz.de): Assay Ready Plates were prepared by adding compounds to 384-well plates (Corning #3712) using Echo Liquid Handler. On day 0, 1200 cells/well of L428, L540, or KMH2 cells in 60 μl of growth media (RPMI1640+10% FBS+1% L-Glu+1% P/S) were dispensed into the Assay Ready Plates, 10 μM as final top concentration, with 1:3 dilution, and 10 doses total. The same volume was also dispensed into 1 empty plate for Day 0 control plate. 30 μl/well of CellTiter Glo reagent (Promega #7573) was added into Day 0 plate, incubate at room temperature for 20 min in dark, Measure luminescence on plate reader Tecan M200 using 100 ms integration time, Oms attenuation and settle times. The assay plates were incubated for 7 days in incubator with 37° C., 90% humidity, 5% CO2. Luminescence was measured as Day 0 control plate. IC50 was calculated using GraphPad Prism 8 with Nonlinear regression (curve fit) analysis.

HDLM2 cells = test: Proliferation assay, HDLM2 Hodgkin Lymphoma cells (CellTiter Glo); format: cell-based; settings: Homo sapiens
Protocol: as §2
Alternatively, for HDLM2 (purchased from DSMZ): Cells were grown as […] cells in growth media (phenol red free RPMI+10% FCS+2 mM glutamine). Cells were seeded into 96-well clear-bottomed black tissue-culture treated plates at 1000 cells/well in 90 μl growth media and placed in an incubator at 37° C., 5% CO2. Compound was obtained in solution from the liquid bank at a concentration of 10 mM in DMSO then half-log serial dilutions performed in DMSO to make ×1000 fold stock solutions. Concentrations were then diluted 1 in 10 in DMSO followed by 1 in 10 in growth media to give an addition plate at x^10 final concentration in 10% DMSO. 10 μl compound was then added to 90 μl cell (1 in 10 dilution) to give a concentration range of 0.1 nM to 10 μM in 1% DMSO. CellTiter Glo readings were taken at the point of dosing and at 6 days. […] Read luminescence on Envision F (ultrasensitive luminescence 96-well protocol with 384 well aperture). IC50 was calculated using GraphPad Prism 8 with Nonlinear regression (curve fit) analysis.

L540 cells = test: Proliferation assay, L540 Hodgkin Lymphoma cells (CellTiter Glo); format: cell-based; settings: Homo sapiens
Protocol: as §2

L428 cells = test: Proliferation assay, L428 Hodgkin Lymphoma cells (CellTiter Glo); format: cell-based; settings: Homo sapiens
Protocol: as §2

[2] = test system: MTAP knock out (KO) HCT116 cells; test: Proliferation assay, HCT116 MTAP knock out cells (Alamar Blue); format: cell-based; settings: Homo sapiens, HCT-116; HCT116, MTAP status KO, MTAP mRNA level low; average values from two or more experiments
Protocol: as §1

[3] = test system: SDMA (marker of target engagement); test: Pharmacodynamic analysis: SDMA western blot in L540 xenograft tumors; format: in vivo, Mouse (Mus Musculus); settings: tumors collected 6 h after last dose on day 21, western blot normalized to vinculin
Protocol: (§3) This study was performed to evaluate tumor growth inhibition and pharmacodynamic changes following treatment with the MTA synergistic PRMT5 inhibitor Compound C in the MTAP silenced L540 HL xenograft model. Three doses of Compound C (Dose Level 1, Dose Level 2 and Dose Level 3) were tested. Pharmacodynamic changes were assessed by western blot for a decrease in SDMA (marker of target engagement) following treatment with Compound C.
(§4) Control animals were dosed with vehicle (5% v/v DMSO/20% v/v Kolliphor HS15/75% v/v purified water (pH 3.0-3.2)) PO, and vehicle and Compound C treated animals were dosed according to Table 6. Dosing was initiated 1 day upon selection and randomization. On day 21 of dosing, all animals from each received the last dose in the morning. Mice were necropsied 6 h later and flash frozen tumors were collected for PD analysis.
To determine levels of protein of interest in tumor samples, snap frozen tumor fragments at the end of the PD study were used and protein extracted by adding 600-1000 μl lysis buffer for small and large tumors, respectively. […] Lysates were transferred to a deepwell plate, and protein in the supernatant measured using BCA normalisation method (Thermofisher, #23225). […] The membranes were washed three times for 15 minutes each in 20 ml of TBST, and signal was detected using chemiluminescent SuperSignal West Dura extended duration substrate (Thermofisher, #34075) and quantified using Syngene software. The 30 kDa molecular weight band of PRMT5's substrate, SDMA, was quantified using Syngene software. The 110 kDa molecular weight band of vinculin was also quantified. […]
Primary analysis was carried out using Excel, where raw data was firstly normalised to vinculin, secondly to the geomean of vehicle control and then multiplied by 100. […] Significant p-values, if any, obtained from the ANOVA test, were quantified using GraphPad Prism 8.4.3.

[4] = Tolerability / body weight in L540 HL xenograft model; format: in vivo, Mouse (Mus Musculus); settings: all doses tested, PO, 21 days
Protocol: as §4
(§5) • Tumors were measured twice weekly by caliper, and the volumes of tumors were calculated using the formula: Volume (mm^3)=(Tumor Length)×(Tumor width)×(Tumor width)/2 • Relative tumor volume (RTV) was calculated using the formula: RTV for day X=(Tumour volume on day X)/(Tumour volume on day 0) • The anti-cancer effect of Compound C was expressed as percent of tumor growth inhibition (TGI) calculated on last day of the study using the formula: • Percentage TGI on day X for treatment group=(((Geomean RTV Vehicle day X)−(Geomean RTV Treatment group day X))/((Geomean RTV Vehicle on day X)−1)×100 • Animals were weighted daily for the dosing phase and twice weekly for all other phases. Percentage of body weight change was calculated using the formula: Percentage body weight change on day X=(((Body weight day X)−(Body weight day of select)×100))
Tumor volumes were plotted as geometric means with SEM. Percentage of body weight change was plotted as means with SEM. […]

[5] = test system: MTAP silenced L540 HL xenograft; test: Tumor growth inhibition in L540 HL xenograft model; format: in vivo, Mouse (Mus Musculus); settings: for TGI (%): 21 days of dosing, TGI measured day 21 (end of treatment), NOD/SCID mice
Protocol: as §3
Xenografts were established by subcutaneous (SC) injection of 5×10^e6 cells suspended in 0.1 mL of PBS into the right front flank of 6-to 8-week-old animals. Tumors were allowed to reach 100-200 mm^3 before randomization. Tumors were measured by calliper and the volumes of tumors were calculated using the following formula: Volume (mm3)=(Tumor Length)×(Tumor width)×(Tumor width)/2 Tumor length (the longest tumor dimension); Tumor width (the longest tumor dimension perpendicular to length).
Animals were randomized into groups based on the size of the tumor. Randomization was performed based on “Matched distribution” method (StudyDirector™ software, version 3.1.399.19). The date of randomization is denoted as Day 0. There were no animal substitutions.
as §4, §5
Tumor volumes were plotted as geometric means with SEM. Percentage of body weight change was plotted as means with SEM. Significant p-values for TGI relative to vehicle treated controls (relative tumor volumes) at the last day of treatment, were obtained from a Mann-Whitney one-tailed test, and calculated by GraphPad Prism 8.4.3

[6] = L-1236, L1236, MTAP status wt, MTAP mRNA level low, average values from two or more experiments, read-out: IC50, proliferation
[7] = HDLM-2, HDLM2, MTAP status wt, MTAP mRNA level low, average values from two or more experiments, read-out: IC50, proliferation
[8] = L-540, L540, MTAP status wt, MTAP mRNA level low, average values from two or more experiments, read-out: IC50, proliferation
[9] = L-428, L428, MTAP status wt, MTAP mRNA level high, average values from two or more experiments, read-out: IC50, proliferation

IC50 [1] | IC50 (L1236 cells; [6]) | IC50 (HDLM2 cells; [7]) | IC50 (L540 cells; [8]) | IC50 (L428 cells; [9]) | IC50 [2] | Structure (SMILES) | Percentage Inhibition of SDMA ([3]; Dose Level 1, PO) | Percentage Inhibition of SDMA ([3]; Dose Level 2, PO) | Percentage Inhibition of SDMA ([3]; Dose Level 3, PO) | IC50 (L1236 cells; L-1236, read-out: IC50, proliferation) | Body weight loss during the treatment period compared to vehicle-treated group [4] | Tolerability [4] | IC50 (HDLM2 cells; HDLM-2, read-out: IC50, proliferation) | TGI (%) ([5]; Dose Level 1, PO) | TGI (%) ([5]; Dose Level 2, PO) | TGI (%) ([5]; Dose Level 3, PO) | Inhibition of tumour growth in vivo (in words) ([5]; Dose Levels 1-3, PO, L540 HL xenograft) | IC50 (L540 cells; L-540, read-out: IC50, proliferation) | IC50 (L428 cells; L-428, read-out: IC50, proliferation)
> 20 µM | 0.067 µM | 0.039 µM | 0.247 µM | 2.52 µM | 0.158 µM | Nc1nc2cc(CN3C(=O)c4cc(F)ccc4[C@]34CCN(Cc3ccc(F)cc3)C4=O)[nH]c2cc1F [Compound A, (S)-2-((5-Amino-6-fluoro-1H-pyrrolo[3,2-b]pyridin-2-yl)methyl)-5-fluoro-1′-(4-fluorobenzyl)spiro[isoindoline-1,3′-pyrrolidine]-2′,3-dione] | – | – | – | – | – | – | – | – | – | – | – | – | –
0.075 µM | 0.014 µM | 0.093 µM | 0.157 µM | 0.583 µM | 0.074 µM | CC(=O)N1CCC(Nc2cc(C(=O)NC[C@H](O)CN3CCc4ccccc4C3)ncn2)CC1 [Compound B, reference compound] | – | – | – | – | – | – | – | – | – | – | – | – | –

Structure (SMILES) | IC50 [1] | IC50 (L1236 cells; [6]) | IC50 (HDLM2 cells; [7]) | IC50 (L540 cells; [8]) | IC50 (L428 cells; [9]) | IC50 [2] | Percentage Inhibition of SDMA ([3]; Dose Level 1, PO) | Percentage Inhibition of SDMA ([3]; Dose Level 2, PO) | Percentage Inhibition of SDMA ([3]; Dose Level 3, PO) | IC50 (L1236 cells; L-1236, read-out: IC50, proliferation) | Body weight loss during the treatment period compared to vehicle-treated group [4] | Tolerability [4] | IC50 (HDLM2 cells; HDLM-2, read-out: IC50, proliferation) | TGI (%) ([5]; Dose Level 1, PO) | TGI (%) ([5]; Dose Level 2, PO) | TGI (%) ([5]; Dose Level 3, PO) | Inhibition of tumour growth in vivo (in words) ([5]; Dose Levels 1-3, PO, L540 HL xenograft) | IC50 (L540 cells; L-540, read-out: IC50, proliferation) | IC50 (L428 cells; L-428, read-out: IC50, proliferation)
CC#CCN1CC[C@@]2(C1=O)c1ccc(F)cc1C(=O)N2Cc1cc2nc(N)c(F)cc2[nH]1 [Compound C, (S)-2-((5-Amino-6-fluoro-1H-pyrrolo[3,2-b]pyridin-2-yl)methyl)-1′-(but-2-yn-1-yl)-5-fluorospiro[isoindoline-1,3′-pyrrolidine]-2′,3-dione] | 8.54 µM | – | – | – | – | 0.17 µM | 83.9% | 97.6% | 99.1% | 0.077 µM | no significant body weight loss | well tolerated | 0.827 µM | 22% | 52% | 93% | dose-dependent efficacy | 0.252 µM | 4.64 µM
